Like-named read-outs stand apart in the source and are kept apart here. Bridge positions count the residues as written; N and C are the ends. Peptide text beside a SMILES is read from it. I, II: the chains in the order shown.
Experiments:
[1] = target: T1, RXFP3 (Homo sapiens, UniProt Q9NSD7); experiment: Competition binding in CHO-K1-RXFP3 cells (Eu-H3B1-22R)
T1 construct: expressed in transfected cells; host or cells: CHO-K1 (ATCC), stably transfected
T1 sequence (Q9NSD7 1-469): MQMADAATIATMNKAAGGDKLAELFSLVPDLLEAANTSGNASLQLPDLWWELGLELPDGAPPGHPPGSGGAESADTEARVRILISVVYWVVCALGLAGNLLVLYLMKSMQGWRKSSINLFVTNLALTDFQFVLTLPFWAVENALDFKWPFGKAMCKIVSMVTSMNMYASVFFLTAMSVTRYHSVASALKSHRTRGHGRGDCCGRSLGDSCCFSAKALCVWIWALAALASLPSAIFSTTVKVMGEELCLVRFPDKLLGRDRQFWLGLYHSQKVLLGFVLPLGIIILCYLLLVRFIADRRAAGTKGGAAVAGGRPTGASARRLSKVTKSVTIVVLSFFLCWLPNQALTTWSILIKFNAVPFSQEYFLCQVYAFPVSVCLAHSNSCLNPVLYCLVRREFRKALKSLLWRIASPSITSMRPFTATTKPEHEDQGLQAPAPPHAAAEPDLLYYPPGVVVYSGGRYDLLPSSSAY
Method: (§1) Chinese hamster ovary CHO-K1 cells (sourced from American Type Culture Collection (ATCC), Maryland, USA) stably transfected with RXFP3[33] or RXFP4[9] were plated out onto precoated poly-L-lysine 96-well view plates at a density of 50 000 cells per well. Medium was aspirated off and the cells were washed with phosphate-buffered saline (PBS) before competition binding assays were performed with 5 nM Eu-H3B1–22R[34] (RXFP3 ligand) or 5 nM Eu-DTPA-mINSL5[9] (RXFP4 ligand) as previously described. Competition binding curves were performed in triplicate and each experiment was performed independently at least three times. Fluorescent measurements were carried out on a BMG POLARstar plate reader (BMG Labtech, Melbourne, Australia. Pooled data are presented as mean ± S.E of specific binding and are fitted using one-site binding curve in GraphPad Prism version 8 (GraphPad Inc., San Diego, USA). Statistical analyses were conducted using one-way analysis of variance with uncorrected Fisher’s least significant difference (LSD) post-hoc analysis in GraphPad Prism version 8.

[2] = target: T1, RXFP3; experiment: cAMP agonist assay (inhibition of forskolin-induced cAMP, pCRE β-galactosidase reporter) in CHO-K1-RXFP3 cells; assay type: cell-based; conditions: CHO-K1-RXFP3 cells, inhibition of 5 µM forskolin-induced cAMP, 6 hours; mean ± SEM, n in cell
Method: (§2) The peptides were tested for their ability to inhibit forskolin induced cAMP activity in CHO-K1-RXFP3 or CHO-K1-RXFP4 cells transfected with a pCRE (cAMP Response Element) β-galactosidase reporter plasmid as previously described[9],[34]. For agonist assays cells were stimulated with forskolin (5 µM for RXFP3, 1 µM for RXFP4) plus or minus increasing concentrations of each peptide for 6 hours. For antagonist assays cells were stimulated with forskolin as in agonist assays plus increasing concentrations of each peptide for 10 minutes followed by stimulation with agonist at an ~EC80 concentration for a further 6 hours (10 nM Analogue 2 for RXFP3 and 16.6 nM Analogue 13 for RXFP4). Each peptide was tested in triplicate and each experiment was performed independently at least three times. Agonist data was expressed as the % Forskolin activity whereby 100% was defined as Forskolin alone and 0% as maximum agonist stimulation (1 µM Analogue 2 for RXFP3 and 1 µM Analogue 13 for RXFP4). […] Data were analysed and plotted using GraphPad PRISM 8 and are expressed as the mean ± SEM of the pooled data. Statistical analysis was conducted using one-way ANOVA with Uncorrected Fisher’s LSD post-hoc analysis in GraphPad Prism version 8.

[3] = target: T1, RXFP3; experiment: cAMP antagonist assay against 10 nM analogue 2 in CHO-K1-RXFP3 cells; assay type: cell-based; conditions: for Emax: SEM, read-out: RXFP3 Emax (antagonist efficacy)
Method: as §2

[4] = target: T2, RXFP4 (Homo sapiens, UniProt Q8TDU9); experiment: Competition binding in CHO-K1-RXFP4 cells (Eu-DTPA-mINSL5); design: expressed in transfected cells; host or cells: CHO-K1 (ATCC), stably transfected
Method: as §1

[5] = target: T2, RXFP4; experiment: cAMP agonist assay (inhibition of forskolin-induced cAMP, pCRE β-galactosidase reporter) in CHO-K1-RXFP4 cells; assay type: cell-based; design: expressed in transfected cells; host or cells: CHO-K1 (ATCC), stably transfected; conditions: CHO-K1-RXFP4 cells, inhibition of 1 µM forskolin-induced cAMP, 6 hours; mean ± SEM, n in cell
Method: as §2

[6] = target: T2, RXFP4; experiment: cAMP antagonist assay against 16.6 nM analogue 13 in CHO-K1-RXFP4 cells; assay type: cell-based; design: expressed in transfected cells; host or cells: CHO-K1 (ATCC), stably transfected; conditions: for Emax: SEM, read-out: RXFP4 Emax (antagonist efficacy)
Method: as §2

[7] = CHO-K1 cells stably transfected with RXFP3, competition with 5 nM Eu-H3B1-22R, read-out: RXFP3 Binding Ki
[8] = CHO-K1 cells stably transfected with RXFP4, competition with 5 nM Eu-DTPA-mINSL5, read-out: RXFP4 Binding Ki
[9] = CHO-K1-RXFP4 cells, block of 16.6 nM analogue 13, read-out: RXFP4 Antagonist potency IC50
[10] = CHO-K1-RXFP3 cells, peptide 10 minutes, then 10 nM analogue 2 for 6 hours, 5 µM forskolin, mean ± SEM, read-out: RXFP3 Antagonist potency pIC50 (converted)

T2 sequence (Q8TDU9 whole entry): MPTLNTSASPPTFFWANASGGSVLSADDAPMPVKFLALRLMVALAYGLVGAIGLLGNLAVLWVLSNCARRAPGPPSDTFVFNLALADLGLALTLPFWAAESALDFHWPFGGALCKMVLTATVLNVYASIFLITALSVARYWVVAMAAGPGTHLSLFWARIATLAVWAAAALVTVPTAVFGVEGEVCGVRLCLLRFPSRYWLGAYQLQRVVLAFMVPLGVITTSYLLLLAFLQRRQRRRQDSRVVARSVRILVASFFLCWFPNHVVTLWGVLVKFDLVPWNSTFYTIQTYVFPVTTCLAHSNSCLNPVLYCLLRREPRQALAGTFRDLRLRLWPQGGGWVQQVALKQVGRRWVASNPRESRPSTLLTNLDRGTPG

Structure (SMILES): CC[C@H](C)[C@@H]1NC(=O)[C@H](Cc2ccccc2)NC(=O)[C@H](CCC(=O)O)NC(=O)[C@H](CC(C)C)NC(=O)CNC(=O)[C@@H](NC(=O)[C@H](CC(C)C)NC(=O)[C@H](CCCNC(=N)N)NC(=O)[C@@H](NC(=O)CNC(=O)[C@H](Cc2ccc(O)cc2)NC(=O)[C@@H]2CCCN2C(=O)[C@H](C)NC(=O)[C@H](C)NC(=O)[C@@H](N)CCCNC(=N)N)C(C)C)CSSC[C@@H]2NC(=O)[C@@H](NC(=O)[C@H](CC(C)C)NC(=O)[C@@H](NC(=O)[C@H](CCC(N)=O)NC(=O)[C@H](CC(C)C)NC(=O)[C@H](CC(=O)O)NC(=O)[C@@H]3CCC(=O)N3)[C@@H](C)O)CSSC[C@H](NC(=O)CNC(=O)[C@H](CC(=O)O)NC(=O)[C@H]([C@@H](C)O)NC2=O)C(=O)N[C@@H](CO)C(=O)N[C@@H](CCSC)C(=O)N[C@@H]([C@@H](C)O)C(=O)N[C@@H](CC(=O)O)C(=O)N[C@@H](CC(C)C)C(=O)N[C@@H](CO)C(=O)N[C@@H](C)C(=O)N[C@@H](CC(C)C)C(=O)N[C@H](C(=O)O)CSSC[C@@H](C(=O)N[C@@H](CCCNC(=N)N)C(=O)O)NC(=O)[C@H]([C@@H](C)O)NC(=O)[C@H](Cc2ccccc2)NC(=O)[C@H]([C@@H](C)CC)NC(=O)[C@H](C(C)C)NC(=O)[C@H](C)NC(=O)[C@H](CCCNC(=N)N)NC1=O [Analogue 14]
- Ki [1, 7]: 24 nM
- RXFP3 Activity pEC50 [2]: No activity (3)
- IC50 ([3]; CHO-K1-RXFP3 cells, block of 10 nM analogue 2, read-out: RXFP3 Antagonist potency IC50): 263 nM
- Emax [3]: 66.5 ± 14.8%
- Ki [4, 8]: 24 nM
- RXFP4 Activity pEC50 [5]: Weak partial agonist (6)
- IC50 [6, 9]: 331 nM
- Emax [6]: 37.3 ± 7.6%

Structure (SMILES): CC[C@H](C)[C@@H]1NC(=O)[C@H](Cc2ccccc2)NC(=O)[C@H](CCC(=O)O)NC(=O)[C@H](CCCNC(=N)N)NC(=O)CNC(=O)[C@@H](NC(=O)[C@H](CC(C)C)NC(=O)[C@H](CCCNC(=N)N)NC(=O)[C@@H](NC(=O)CNC(=O)[C@H](Cc2ccc(O)cc2)NC(=O)[C@@H]2CCCN2C(=O)[C@H](C)NC(=O)[C@H](C)NC(=O)[C@@H](N)CCCNC(=N)N)C(C)C)CSSC[C@H](N)C(=O)N[C@@H]([C@@H](C)O)C(=O)N[C@@H](CC(=O)O)C(=O)NCC(=O)N[C@@H](C)C(=O)N[C@@H](CO)C(=O)N[C@@H](CCSC)C(=O)N[C@@H](CCCCN)C(=O)N[C@@H](CC(=O)O)C(=O)N[C@@H](CC(C)C)C(=O)N[C@@H](CO)C(=O)N[C@@H](C)C(=O)N[C@@H](CC(C)C)C(=O)N[C@H](C(=O)O)CSSC[C@@H](C(=O)N[C@@H](CCCNC(=N)N)C(=O)O)NC(=O)[C@H]([C@@H](C)O)NC(=O)[C@H](Cc2ccccc2)NC(=O)[C@H]([C@@H](C)CC)NC(=O)[C@H](C(C)C)NC(=O)[C@H](C)NC(=O)[C@H](CCCNC(=N)N)NC1=O [Analogue 15] (I: H-RAAPYGVRLCGREFIRAVIFTCR-OH / II: H-CTDGASMKDLSALC-OH; disulfide I:10-II:1, I:22-II:14)
- Ki [1, 7]: 15.5 nM
- RXFP3 Activity pEC50 [2]: No activity (4)
- IC50 [3, 10]: > 10000 nM
- Emax [3]: 43.5 ± 12.1%
- Ki [4, 8]: 22.9 nM
- RXFP4 Activity pEC50 [5]: Weak partial agonist (5)
- Emax [6]: 49.4 ± 6.2%

Structure (SMILES): CC[C@H](C)[C@@H]1NC(=O)[C@H](Cc2ccccc2)NC(=O)[C@H](CCC(=O)O)NC(=O)[C@H](CCCNC(=N)N)NC(=O)CNC(=O)[C@@H](NC(=O)[C@H](CC(C)C)NC(=O)[C@H](CCCNC(=N)N)NC(=O)[C@@H](NC(=O)CNC(=O)[C@H](Cc2ccc(O)cc2)NC(=O)[C@@H]2CCCN2C(=O)[C@H](C)NC(=O)[C@H](C)NC(=O)[C@@H](N)CCCNC(=N)N)C(C)C)CSSC[C@H](N)C(=O)N[C@@H]([C@@H](C)O)C(=O)N[C@@H](CC(=O)O)C(=O)NCC(=O)N[C@@H](C)C(=O)N[C@@H](CO)C(=O)N[C@@H](CCSC)C(=O)N[C@@H](CCCCN)C(=O)N[C@@H](CC(=O)O)C(=O)N[C@@H](CC(C)C)C(=O)N[C@@H](CO)C(=O)N[C@@H](C)C(=O)N[C@@H](CC(C)C)C(=O)N[C@H](C(=O)O)CSSC[C@@H](C(=O)N[C@@H](CCCNC(=N)N)C(=O)O)NC(=O)[C@H]([C@@H](C)O)NC(=O)[C@H](Cc2ccccc2)NC(=O)[C@H]([C@@H](C)CC)NC(=O)[C@H](C(C)C)NC(=O)[C@H]([C@@H](C)O)NC(=O)[C@H](CCCNC(=N)N)NC1=O [Analogue 17] (I: H-RAAPYGVRLCGREFIRTVIFTCR-OH / II: H-CTDGASMKDLSALC-OH; disulfide I:10-II:1, I:22-II:14)
- Ki [1]: 19.1 nM
- RXFP3 Activity pEC50 [2]: No activity (3)
- IC50 [3]: > 10000 nM
- Emax [3]: 34.8 ± 0.9%
- Ki [4]: 40.7 nM
- RXFP4 Activity pEC50 [5]: Weak partial agonist (4)
- IC50 [6]: 34.7 nM
- Emax [6]: 36 ± 10%

Structure (SMILES): CC[C@H](C)[C@@H]1NC(=O)[C@H](Cc2ccccc2)NC(=O)[C@H](CCC(=O)O)NC(=O)[C@H](CC(C)C)NC(=O)CNC(=O)[C@@H](NC(=O)[C@H](CC(C)C)NC(=O)[C@H](CCCNC(=N)N)NC(=O)[C@@H](NC(=O)CNC(=O)[C@H](Cc2ccc(O)cc2)NC(=O)[C@@H]2CCCN2C(=O)[C@H](C)NC(=O)[C@H](C)NC(=O)[C@@H](N)CCCNC(=N)N)C(C)C)CSSC[C@H](N)C(=O)N[C@@H]([C@@H](C)O)C(=O)N[C@@H](CC(=O)O)C(=O)NCC(=O)N[C@@H](C)C(=O)N[C@@H](CO)C(=O)N[C@@H](CCSC)C(=O)N[C@@H](CCCCN)C(=O)N[C@@H](CC(=O)O)C(=O)N[C@@H](CC(C)C)C(=O)N[C@@H](CO)C(=O)N[C@@H](C)C(=O)N[C@@H](CC(C)C)C(=O)N[C@H](C(=O)O)CSSC[C@@H](C(=O)N[C@@H](CCCNC(=N)N)C(=O)O)NC(=O)[C@H]([C@@H](C)O)NC(=O)[C@H](Cc2ccccc2)NC(=O)[C@H]([C@@H](C)CC)NC(=O)[C@H](C(C)C)NC(=O)[C@H](C)NC(=O)[C@H](CCCNC(=N)N)NC1=O [Analogue 18] (I: H-RAAPYGVRLCGLEFIRAVIFTCR-OH / II: H-CTDGASMKDLSALC-OH; disulfide I:10-II:1, I:22-II:14)
- Ki [1, 7]: 25.7 nM
- RXFP3 Activity pEC50 [2]: No activity (3)
- IC50 [3, 10]: > 10000 nM
- Emax [3]: 47 ± 7.3%
- Ki [4, 8]: 14.8 nM
- RXFP4 Activity pEC50 [5]: Weak partial agonist (3)
- IC50 [6, 9]: 214 nM
- Emax [6]: 56.2 ± 11.8%
